Measurements published in patent publication US7572600B2, “Enzymatic activities in chemokine-mediated inflammation” (Chemocentryx, Inc., priority 2004, dated 2009).
“Also recorded” adds a separate entry of the source. Where no end group is shown, it is not given here.

T1: CCR1 (Homo sapiens, UniProt P32246)
T1 sequence (P32246 1-355): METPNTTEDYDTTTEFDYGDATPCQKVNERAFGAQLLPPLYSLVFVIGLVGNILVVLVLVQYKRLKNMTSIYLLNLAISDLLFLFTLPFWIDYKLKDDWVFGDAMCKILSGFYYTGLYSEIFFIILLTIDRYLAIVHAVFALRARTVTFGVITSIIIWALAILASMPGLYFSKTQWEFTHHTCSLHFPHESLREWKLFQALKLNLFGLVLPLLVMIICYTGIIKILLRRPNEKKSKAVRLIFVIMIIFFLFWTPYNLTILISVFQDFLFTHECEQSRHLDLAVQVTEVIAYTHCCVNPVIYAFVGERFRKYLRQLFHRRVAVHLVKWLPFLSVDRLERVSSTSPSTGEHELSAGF

T2: FPRL1 (Homo sapiens, UniProt P25090)
T2 sequence (P25090 1-351): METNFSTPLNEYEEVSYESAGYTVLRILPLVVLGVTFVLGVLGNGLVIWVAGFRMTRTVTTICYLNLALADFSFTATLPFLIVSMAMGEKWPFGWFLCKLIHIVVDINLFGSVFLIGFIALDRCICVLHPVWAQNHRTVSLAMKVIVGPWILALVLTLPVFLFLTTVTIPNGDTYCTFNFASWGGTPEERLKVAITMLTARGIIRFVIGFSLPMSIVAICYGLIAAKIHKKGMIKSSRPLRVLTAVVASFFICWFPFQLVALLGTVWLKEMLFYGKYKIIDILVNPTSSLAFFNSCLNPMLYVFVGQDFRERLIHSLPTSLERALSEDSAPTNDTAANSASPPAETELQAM

B1: CCL23β Δ24: truncated form of CCL23β lacking the 24-residue N-terminal domain, beginning with the SHAAGtide insertion (protein, listed as Homo sapiens)
chain: MLWRRKIGPQMTLSHAAGFHATSADCCISYTPRSIPCSLLESYFETNSECSKPGVIFLTKKGRRFCANPSDKQVQVCMRMLKLDTRIKTRKN

How the values were obtained:
[1] = tested on: human monocytes; assay: Chemotaxis of human monocytes; type: cell-based; settings: undigested
Procedure: Chemotaxis assay. L1.2-CCR1 transfectants, THP-1 cells, human monocytes and human neutrophils were collected by centrifugation and resuspended in HBSS containing 0.1% BSA. Chemotaxis assays were performed in 96-well ChemoTx® microplates (Neuroprobe, Rockville, Md.) as follows. Chemokines were added to the lower wells (final volume 29 μL), and 20 μL of cell suspension (5×10^6 cells/mL) was added to the polycarbonate filter (3 μm pore size for neutrophils, 5 μm for other 3 cell types). After incubation at 37° C. in the presence of 5% CO2 for 1 hr (neutrophils), 90 min (monocytes) or 2 h (THP-1 and L1.2-CCR1), cells were removed from the upper surface of the filter by scraping. Cells that migrated into the lower chamber were quantified by using the CyQuant cell proliferation assay kit (Molecular Probes, Eugene, Oreg.) and analyzed with a Tecan (Durham, N.C.) fluorimeter (excitation at 480 nm, emission at 530 nm). Data were analyzed and plotted in arbitrary units of fluorescence using Prism (GraphPad Software, San Diego, Calif.).
Chemotaxis assays. L1.2-CCR1 and L1.2-FPRL1 transfectants, monocytes and neutrophils were collected by centrifugation and resuspended in HBSS with 0.1% BSA. The assays were performed in 96-well ChemoTx® microplates (Neuroprobe, Rockville, Md.). Chemokines were diluted in HBSS with 0.1% BSA and added to the lower wells (final volume 29 μL), then 20 μL of cell suspension (5×10^6 cells/mL for monocytes; 2.5×10^6 cells/mL for neutrophils) were added to the polycarbonate filters (5 μm pore size for monocytes and FPRL1 transfectants; 3 μm pore size for neutrophils). After incubation for 90 min (37° C., 100% humidity, 5% CO2), the filters were removed and the cells that migrated into the lower chamber were quantified by using the CyQuant cell proliferation assay kit (Molecular Probes, Oreg.).

[2] = biological target: T1, CCR1; assay: Competition binding with 125I-MIP-1α on L1.2-CCR1 cells; set-up: endogenous in cells; host or cells: human CD14+ monocytes from buffy coats
Procedure: Binding assay. Competition binding studies were conducted using monocytes, L1.2-CCR1 or L1.2-FPRL1 cells. Cells were incubated for 3 hr at 4° C. with ^125I-MIP-1α (final concentration ˜0.05 nM) or ^125I-WKYMVm (final concentration ˜0.01 nM) in buffer (25 mM HEPES, 140 mM NaCl, 1 mM CaCl2, 5 mM MgCl2 and 0.2% BSA, adjusted to pH 7.1) in the presence of increasing amounts of unlabeled chemokine. Reactions were aspirated onto PEI-treated GF/B glass filters using a cell harvester (Packard). Filters were washed twice (25 mM HEPES, 500 mM NaCl, 1 mM CaCl2, 5 mM MgCl2, adjusted to pH 7.1). Scintillant (MicroScint-10; 35 μl) was added to the filters and counted in a Packard Topcount scintillation counter. Data were analyzed and plotted using Prism (GraphPad Software, San Diego, Calif.).

[3] = biological target: T2, FPRL1; assay: Competition binding with 125I-WKYMVm on human monocytes; set-up: endogenous in cells; host or cells: human CD14+ monocytes from buffy coats
Procedure: Binding assay. Competition binding studies were conducted using monocytes, L1.2-CCR1 or L1.2-FPRL1 cells. […] Reactions were aspirated onto PEI-treated GF/B glass filters using a cell harvester (Packard). Filters were washed twice (25 mM HEPES, 500 mM NaCl, 1 mM CaCl2, 5 mM MgCl2, adjusted to pH 7.1). Scintillant (MicroScint-10; 35 μl) was added to the filters and counted in a Packard Topcount scintillation counter. Data were analyzed and plotted using Prism (GraphPad Software, San Diego, Calif.).

[4] = biological target: T1, CCR1; assay: Calcium mobilization in murine L1.2 cells expressing human CCR1; type: cell-based; set-up: expressed in transfected cells; host or cells: murine L1.2 cells (G-418 selected transfectant); settings: L1.2 cells stably expressing human CCR1
Procedure: Calcium Mobilization Assay. Cells were loaded for 1 hour with 2 μM indo-1/AM dye (Molecular Probes, Eugene, Oreg.) in culture medium, then washed with 10 ml PBS and resuspended at 10^6/ml in HBSS containing 1% FBS. Cytosolic calcium responses were determined using a Photon Technology International (Lawrenceville, N.J.) fluorimeter, with excitation at 350 nm and dual emission at 400 and 490 nm. Alternatively, cells were loaded with 5 μg/ml Fluo-4 AM dye (Molecular Probes, Eugene, Oreg.), then washed and analyzed on a Fluorometric Imaging Plate Reader 384 (FLIPR^384 Molecular Devices, Sunnyvale, Calif.), with 505 nm excitation and 530 nm emission.
Receptor signaling assay. For individual measurements, cells were loaded for 45 min at room temperature with 2 μM indo-1/AM (Invitrogen, Carlsbad Calif.) in culture medium, then washed with 10 ml PBS and resuspended at 10^6 cells/ml in HBSS containing 0.1% BSA. Cytosolic calcium levels were determined using a Photon Technology International fluorimeter (excitation at 350 nm, ratio of dual emission at 400 and 490 nm). For measuring calcium dose responses, cells were analyzed with a Fluorometric Imaging Plate Reader 384 (FLIPR^384) (Molecular Devices, Sunnyvale, Calif.). Cells were loaded for 1 hr at 37° C. with 5 μM fluo-4 in HBSS with 0.1% BSA, then washed, transferred to black-wall 96-well plates, and subsequently excited at 505 nm with emission recorded at 530 nm with a standard protocol provided by the manufacture. Cells were stimulated with agonists 20 s after the monitoring of fluorescence began. Data were analyzed and plotted in arbitrary units of fluorescence using Prism. To ensure that responses were specific to FPRL1, we utilized a selective small-molecule antagonist of human FPRL1, generated by ChemoCentryx, which was optimized from a high throughput compound library screening approach.

Molecule | chemotaxis [1] | inhibition of 125I-MIP-1α binding [2] | IC50 [3] [nM] | calcium mobilization in the CCR1 transfectant [4]
MLWRRKIGPQMTLSHAAG [SHAAGtide] | vigorous chemotaxis | unable to inhibit binding; also recorded: does not bind CCR1 | 10 | 
B1 | vigorous chemotaxis |  |  | effective at inducing calcium mobilization
